Results published in patent publication US7202228B2, “Hydrogelation agents” (Japan Science and Technology Agency, priority 2001, dated 2007).

Experiments:
[1] = Gelatinizing ability in aqueous solutions of varying pH (gel formation observed); type: physicochemical; design: key to formation of a gel, pH 168 / formation of a gel, pH 401 / formation of a gel, pH 755 / formation of a gel, pH 918 / formation of a gel, milliQ water: the formation of gel is indicated by “G”; partial formation of gel is indicated by “LG”; unchanged aqueous solution is indicated by “S”; the formation of a precipitate is indicated by “P”; insolubility is indicated by “I”; settings: for formation of a gel, pH 401: 10 mg compound in 0.5 ml buffer solution pH 401; for formation of a gel, pH 401 / formation of a gel, pH 755 / formation of a gel, pH 918 / formation of a gel, pH 168 / formation of a gel, milliQ water: 60° C. or more, ultrasound one hour, then room temperature; for formation of a gel, pH 755: 10 mg compound in 0.5 ml buffer solution pH 755; for formation of a gel, pH 918: 10 mg compound in 0.5 ml buffer solution pH 918; for formation of a gel, pH 168: 10 mg compound in 0.5 ml buffer solution; for formation of a gel, milliQ water: 10 mg compound in 0.5 ml milliQ water (distilled water); for solidification of milliQ water (distilled water) or water of pH 4–9: concentration of hydrogelatinizer 2wt %
Method: The gelatinizing ability was examined for aqueous solutions, of varying pH, of Compounds 1–7 synthesized in Manufacturing Examples 1–7. 10 mg of these compounds was placed in a sample bottle together with 0.5 ml of buffer solution adjusted to various pH, and while maintaining the temperature at 60° C. or more, the mixture was irradiated with ultrasound for one hour. After leaving the resulting aqueous solution at room temperature, the formation of a gel was observed.
In the table, the formation of gel is indicated by “G”, partial formation of gel is indicated by “LG”, unchanged aqueous solution is indicated by “S”, the formation of a precipitate is indicated by “P”, and insolubility is indicated by “I”.

[2] = Hydrogel formation in water (dissolve at 60° C. or more, leave at room temperature); type: physicochemical; settings: left at room temperature
Method: Next, the method of manufacturing a hydrogel will be described. The gelatinizer of the invention is dissolved in an aqueous solution. A weakly acidic (pH 4) or weakly alkaline (pH 10) aqueous solution is preferred from the viewpoint of solubility. If the pH of the aqueous solution is less than 4, all of the phosphoric acid part is protonated, and it is difficult to dissolve in water. If the pH is higher than 10, the phosphoric acid part dissociates, and remains dissociated so that the water is not solidified. After dissolving the compound in the aqueous solution with heating, it is gradually cooled to room temperature and allowed to stand. In the dissolution process, heat alone is sufficient if the compound can be completely dissolved. If necessary, the compound can be efficiently converted to a simple dispersion in an aqueous solvent by ultrasound. The heating time is of the order of 30 minutes to 2 hours, but to ensure that dissolution of the compound is complete, it is preferably one hour or more. When the aqueous solution in which the compound has been dissolved is gradually cooled in air, and left at room temperature, the aqueous solution solidifies within one day-several days, and forms a hydrogel. […] The fluidity of the resulting gel may be varied by adjusting the pH of the water and the concentration of the gelatinizer during manufacture. In general, the formation of the hydrogel may be observed with the naked eye, but if the microstructure of the gel is observed using an optical microscope or scanning electron microscope, it can be seen that extremely fine fibers of the order of nanometers are entangled together to form a lattice structure.

[3] = 100 mg in 0.5 ml of water, dissolved at 60° C. or more

| SMILES | formation of a gel, pH 401 [1] | formation of a gel, pH 755 [1] | formation of a gel, pH 918 [1] | formation of a gel, pH 168 [1] | formation of a gel, milliQ water [1] | hydrogel formation [2, 3] | solidification of milliQ water (distilled water) or water of pH 4–9 [1] | hydrogel formation ([2]; 1 mg in 0.5 ml of water, 60° C. or more, ultrasound one hour) |
| --- | --- | --- | --- | --- | --- | --- | --- | --- |
| Cc1cn(C2CC(OP(=O)(O)OCCCCCCCCCCCCCCCOP(=O)(O)OC3CC(n4cc(C)c(=O)[nH]c4=O)OC3CO)C(CO)O2)c(=O)[nH]c1=O (stereo not shown) [Compound 4, 1,15-(pentadecanedioxy)-bis(3′-phosphatidyl-2′-deoxythymidine)] | S | S | S | I | P |  |  |  |
| Cc1cn([C@H]2C[C@H](OP(=O)(O)OCCCCCCCCCCCCCOP(=O)(O)O[C@H]3C[C@H](n4cc(C)c(=O)[nH]c4=O)O[C@@H]3CO)[C@@H](CO)O2)c(=O)[nH]c1=O [Compound 2, 1,13-(tridecanedioxy)bis-(3′-phosphatidyl-2′-deoxythymidine)] | S | S | S | I | S | a hydrogel was obtained |  |  |
| Cc1cn([C@H]2C[C@H](OP(=O)(O)OCCCCCCCCCCCCCCCCOP(=O)(O)O[C@H]3C[C@H](n4cc(C)c(=O)[nH]c4=O)O[C@@H]3CO)[C@@H](CO)O2)c(=O)[nH]c1=O [Compound 5, 1,16-(hexadecanedioxy)-bis(3′-phosphatidyl-2′-deoxythymidine)] | S | S | S | I | P |  |  |  |
| Cc1cn([C@H]2C[C@H](OP(=O)(O)OCCCCCCCCCCCCOP(=O)(O)O[C@H]3C[C@H](n4cc(C)c(=O)[nH]c4=O)O[C@@H]3CO)[C@@H](CO)O2)c(=O)[nH]c1=O [Compound 1, 1,12-(dodecanedioxy)bis(3′-phosphatidyl-2′-deoxythymidine)] | S | S | S | I | S | solidified after several days |  |  |
| Cc1cn(C2CC(OP(=O)(O)OCCCCCCCCCCCCCCOP(=O)(O)OC3CC(n4cc(C)c(=O)[nH]c4=O)OC3CO)C(CO)O2)c(=O)[nH]c1=O (stereo not shown) [Compound 3, 1,14-(tetradecanedioxy)bis-(3′-phosphatidyl-2′-deoxythymidine)] | S | S | S | I | S |  |  |  |

More lines, now with the values ahead:

| formation of a gel, pH 401 [1] | formation of a gel, pH 755 [1] | formation of a gel, pH 918 [1] | formation of a gel, pH 168 [1] | formation of a gel, milliQ water [1] | hydrogel formation [2, 3] | solidification of milliQ water (distilled water) or water of pH 4–9 [1] | hydrogel formation ([2]; 1 mg in 0.5 ml of water, 60° C. or more, ultrasound one hour) | SMILES |
| --- | --- | --- | --- | --- | --- | --- | --- | --- |
| P | P | S | I | G |  | efficiently solidified |  | Cc1cn([C@H]2C[C@H](OP(=O)(O)OCCCCCCCCCCCCCCCCCCOP(=O)(O)O[C@H]3C[C@H](n4cc(C)c(=O)[nH]c4=O)O[C@@H]3CO)[C@@H](CO)O2)c(=O)[nH]c1=O [Compound 6, 1,18-(octadecanedioxy)bis-(3′-phosphatidyl-2′-deoxythymidine)] |
| LG | G | G | I | G |  | efficiently solidified | solidified after several days | Cc1cn([C@H]2C[C@H](OP(=O)(O)OCCCCCCCCCCCCCCCCCCCCOP(=O)(O)O[C@H]3C[C@H](n4cc(C)c(=O)[nH]c4=O)O[C@@H]3CO)[C@@H](CO)O2)c(=O)[nH]c1=O [Compound 7, 1,20-(icosanedioxy)bis-(3′-phosphatidyl-2′-deoxythymidine)] |
